One may read the IC50 as the midpoint of a concentration-inhibition curve. Read a low IC50 as inhibition by little substance. One may read the inhibition in vivo as the drop in the measured response relative to a control, in per cent.

These results are taken from ChEMBL document CHEMBL1127933, “Synthesis and biological evaluation of the potent isoxazolidinyl angiotensin II receptor antagonist CL332,877 and its enantiomers” (Bioorg Med Chem Lett, 1994).

For assay [1], the target named is T1, Type-1 angiotensin II receptor (Bos taurus, UniProt P25104).
T1 sequence (P25104 whole entry): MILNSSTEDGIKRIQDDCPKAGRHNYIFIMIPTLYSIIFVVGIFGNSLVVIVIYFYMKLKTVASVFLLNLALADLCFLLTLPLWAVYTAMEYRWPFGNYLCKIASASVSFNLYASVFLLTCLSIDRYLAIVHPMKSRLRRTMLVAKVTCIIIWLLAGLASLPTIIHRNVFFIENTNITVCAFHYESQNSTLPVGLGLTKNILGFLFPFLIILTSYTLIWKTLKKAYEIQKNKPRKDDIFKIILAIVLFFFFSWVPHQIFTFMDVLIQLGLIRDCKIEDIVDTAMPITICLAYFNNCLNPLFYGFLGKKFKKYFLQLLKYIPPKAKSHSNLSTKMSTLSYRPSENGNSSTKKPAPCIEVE
Put plainly: Compound was tested for in vitro for AII receptor antagonistic activity in bovine adrenal cortex. Type of assay: functional, tissue-based.

For assay [2], the target named is T1, Type-1 angiotensin II receptor. The experiment in a line: Binding affinity expressed as inhibitory concentration towards bovine adrenal cortex angiotensin II receptor was measured. The class given is tissue-based.
Assay [3] deals with T2, Angiotensin II receptor (Rattus norvegicus, UniProt P29089+P25095+P35351).
T2 sequence (P29089 whole entry): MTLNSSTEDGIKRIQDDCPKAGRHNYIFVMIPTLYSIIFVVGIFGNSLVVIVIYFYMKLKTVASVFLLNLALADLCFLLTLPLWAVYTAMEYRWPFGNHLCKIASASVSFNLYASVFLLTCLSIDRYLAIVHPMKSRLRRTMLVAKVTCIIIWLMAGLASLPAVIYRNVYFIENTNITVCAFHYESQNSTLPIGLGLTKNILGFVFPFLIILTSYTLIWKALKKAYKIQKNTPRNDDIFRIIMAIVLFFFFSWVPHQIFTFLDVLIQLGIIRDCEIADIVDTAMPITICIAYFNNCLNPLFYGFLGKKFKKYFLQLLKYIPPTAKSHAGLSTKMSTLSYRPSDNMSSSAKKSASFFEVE
T2 sequence (P25095 whole entry): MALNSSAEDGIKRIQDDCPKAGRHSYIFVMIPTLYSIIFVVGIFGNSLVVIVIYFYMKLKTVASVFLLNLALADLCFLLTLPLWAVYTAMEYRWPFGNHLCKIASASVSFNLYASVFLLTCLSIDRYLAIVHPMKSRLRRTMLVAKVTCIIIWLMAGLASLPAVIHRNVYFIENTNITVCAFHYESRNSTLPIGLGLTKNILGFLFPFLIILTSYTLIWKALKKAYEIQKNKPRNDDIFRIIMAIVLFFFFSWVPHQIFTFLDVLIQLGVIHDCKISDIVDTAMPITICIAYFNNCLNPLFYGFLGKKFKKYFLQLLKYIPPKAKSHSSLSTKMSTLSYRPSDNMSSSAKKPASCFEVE
T2 sequence (P35351 whole entry): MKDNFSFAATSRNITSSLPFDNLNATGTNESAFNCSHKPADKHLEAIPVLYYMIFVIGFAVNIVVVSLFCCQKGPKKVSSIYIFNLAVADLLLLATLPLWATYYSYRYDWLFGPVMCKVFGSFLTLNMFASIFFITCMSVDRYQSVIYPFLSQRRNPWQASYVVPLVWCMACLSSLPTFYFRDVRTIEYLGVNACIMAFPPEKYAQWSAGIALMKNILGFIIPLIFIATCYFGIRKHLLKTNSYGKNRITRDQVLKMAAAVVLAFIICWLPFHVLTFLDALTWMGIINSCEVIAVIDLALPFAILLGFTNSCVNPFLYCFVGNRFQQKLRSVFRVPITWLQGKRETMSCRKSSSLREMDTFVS
Put plainly: Binding affinity expressed as inhibitory concentration against angiotensin II of rat adrenal cortex. The class given is tissue-based.

For assay [4], the system named is Rattus norvegicus. Put plainly: Change in mean arterial blood pressure in conscious renin dependent […] rats 1 mg/kg of oral dose after 5 hr. Type of assay: functional.
Assay [5] concerns the target T2, Angiotensin II receptor. Put plainly: Binding affinity expressed as inhibitory concentration against angiotensin II receptor of rat adrenal cortex. Type of assay: tissue-based.
Assay [6] concerns Rattus norvegicus. Put plainly: Percent Inhibition of AII vasopressor response in SHR at 1 mg/kg oral dose in hypertensive rats after 5 h. Type of assay: functional.
Assay [7] concerns Rattus norvegicus. The experiment in a line: Tested for […] in the […] rat at 3 mg/kg of oral dose; […]. Type of assay: functional, organism-based. Also on record: dose 3 mg/kg.
Assay [8] has as its system Rattus norvegicus. The experiment in a line: Decrease in mean arterial blood pressure in aorta coated rats 3 mg/kg of oral dose after 4 hr. The class given is functional.

In the case of `CCc1nc2c(C)cc(C)nc2n1Cc1ccc(-c2ccccc2-c2nnn[nH]2)cc1` [L-158809], in assay [1], the IC50 amounted to 0.027 µM.

`CCCCc1nc2ccc([C@]3(C)C[C@H]4CCCN4O3)cc2c(=O)n1Cc1ccc(-c2ccccc2-c2nn[n-]n2)cc1.[Na+]` (stereo in doubt; 1a): the 50% inhibitory concentration (IC50) stood at 0.026 µM in assay [2] and 0.017 µM in assay [3]. Moreover, the “Change in BP” value in assay [4] (1 mg/kg) came to 0 mmHg.

In turn, `CCCCc1nc2ccc(C(C)(O)C[C@H]3CCCN3)cc2c(=O)n1Cc1ccc(-c2ccccc2-c2nnn[nH]2)cc1` (stereo not given in full) displayed an IC50 in assay [1] of 0.0035 µM.

For `CCCCc1nc2ccc([C@]3(C)C[C@H]4CCCN4O3)cc2c(=O)n1Cc1ccc(-c2ccccc2-c2nn[n-]n2)cc1.[Na+]` (stereo in doubt; 14), the values for the concentration for half-maximal inhibition (IC50) in assay [2] and in assay [5] were 0.038 µM and 0.017 µM, respectively. Further, in assay [6], the inhibition in vivo at 1 mg/kg amounted to 40%. Besides, the “Change in BP” value in assay [4] (1 mg/kg) is given as -4 mmHg.

In the case of `CCCCc1nc2ccc(C(C)(O)C[C@H]3CCCN3)cc2c(=O)n1Cc1ccc(-c2ccccc2-c2nn[nH]n2)cc1` (stereo not given in full), in assay [7], the Activity result was “Weak activity”. Further, in assay [8], the “Change in BP” value is 32 mmHg.

`CCCCc1nc2ccc([C@@]3(C)C[C@@H]4CCCN4O3)cc2c(=O)n1Cc1ccc(-c2ccccc2-c2nnn[n-]2)cc1.[Na+]`: the IC50 worked out at 0.077 µM in assay [2] and 0.026 µM in assay [5]. Besides, in assay [6], the inhibition in vivo at 1 mg/kg was -10%. Moreover, the “Change in BP” value in assay [4] is on record as -3 mmHg.
